Read-outs that look alike come from different tables or passages of the source.
Assays:
Format in all cases: cell-based, human
[1] = system: sporadic PD patient fibroblast lines; assay: Seahorse assay (oxygen consumption, extracellular acidification rate) in sPD fibroblasts; conditions: Homo sapiens, Fibroblast; concentration at which compounds were dosed in the seahorse assay; read-out: EC90 concentration
Method: Fibroblasts are plated into Seahorse 24 well plates with 50,000 cells per well. Cells are left to attach for 2 days. Media is changed to Seahorse DMEM media with glucose and sodium pyruvate and left to equilibrate at 37 degrees normal air CO2 for 1 hour. The plate is entered into the Seahorse machine and run on a program of mix (2 minutes), wait (3 minutes) and measure (3 minutes). After three measurements of basal respiration and ECAR; 0.5 μM oligomycin is injected after which another three measurements are taken; then 0.5 μM of FCCP is injected and three measurements taken and finally 1 μM rotenone is injected and three measurements taken. After all measurements are complete, cells are stained with 10 μM Hoescht and imaged using the InCell to count the number of cells per well for normalisation. This classical ritochondrial stress test experimental protocol allows us to calculate the basal mitochondrial respiration, ATP linked respiration (the amount which is coupled to ATP generation), the maximal and spare respiratory capacity, the non-mitochondrial respiration rate and the extracellular acidification rate which is a proxy measure of glycosolysis.

[2] = system: dopaminergic neurons derived from sPD patients (iNeurons); assay: Dopamine ELISA in iNeurons; conditions: untreated sPD 0
Method: (§1) Briefly, iNPCs are plated in a 6-well plate and cultured for 2 days in DMEM/F-12 medium with Glutamax™ supplemented with 1% NEAA, 2% B27 (Gibco) and 2.5 μM of DAPT. On day 3, DAPT is removed and the medium is supplemented with 1 μM smoothened agonist (SAG) and FGF8 (75 ng/ml) for additional 10 days. Neurons are replated at this stage. Subsequently SAG and FGF8 are withdrawn and replaced with BDNF (30 ng/ml), GDNF (30 ng/ml), TGF-b3 […] and dcAMP (2 mM, Sigma) for 15 days.
Dopamine ELISA is performed using Dopamine research ELISA kit (Labor Diagnostika Nord GmbH&Co. KG) as per manufacturers instructions. Dopamine release is obtained incubating the cells at 37° C. using three different conditions at the same time per line. Medium is removed in all wells then the first well is incubated with HBSS with Ca^2+ and Mg^2+ (Gibco by Life Technologies) for 30 minutes, the second well is incubated in HBSS with Ca^2+ and Mg^2+ for 15 minutes and then 56 mM KCl (Fisher chemical) is added for another 15 minutes and the third well is incubated with HBSS without Ca^2+ and Mg^2+ (Gibco by Life Technologies) but with 2 mM EDTA for 15 min and then 56 mM KCl is added for another 15 minutes. Straight away media is collected in an eppendorf and cells are harvested using Accutase®, centrifuge at 400 g for 4 min and resuspended in 10 μl of PBS. […]

[3] = system: sAD and familial AD (PSEN1 mutants) patient fibroblasts; assay: Total cellular ATP levels in Alzheimer's disease patient fibroblasts; conditions: 24 hour treatment at 100 nM, 21% restores to control levels
Method: Briefly, fibroblasts were cultured as and plated into white 384 well plates with 5000 cells per well in 50 μl of media volume. The plates are left overnight in an incubator to allow the fibroblasts to adhere to the plate surface. The following morning the Glucose based medium is replaced with 25 μl of Galactose based medium. The compounds are added to the plates using a ECHO 550 liquid handling system. The wells were dosed to provide an 8-point concentration range of 0.06 nM-300 nM of compound. After dosing the wells are topped up with a further 25 μl of Galactose based medium and then left in an incubator for 24 hours. Following this incubation the medium is removed from the plate and the wells are washed twice with sterile PBS. The wells are filled with 25 μl of Sterile PBS followed by 12.5 μl of Lysis solution from the ATPlite™ Luminescence ATP detection assay system (Perkin Elmer), including 16 cell free wells to use as blank controls. The plate is then placed on a rotary shaker for 5 mins at 700 rpm. Following the shaking 12.5 μl of ATP substrate solution (Perkin Elmer) is added to each well and a further 5 min of shaking. The plate is then placed in darkness for 10 minutes prior to reading. Using a PHERAStar® plate reader, luminescence intensity is recorded. Following the ATP assay the plates are immediately assayed for DNA content in a CyQUANT® assay.
Immediately following The ATP assay DNA content is assessed with the CyQUANT® NF Cell Proliferation Assay Kit (ThermoFisher). CyQUANT® buffer is prepared immediately before the assay and is comprised of 1 ul CyQUANT® dye per ml×1 HBSS solution. 12.5 ul of CyQUANT® buffer is added to each well. Plate left in incubator for 1 hour then read on a PHERAStar® Plate reader with excitation at 497 nm and emission at 520 nm.
Data shown in the Table 6 below is the mean increase in ATP levels after 24 hour treatment with compounds at 100 nM concentration.

[4] = system: dopaminergic neurons derived from sPD patients (iNeurons); assay: Activated caspase 3 immunofluorescence staining in iNeurons; conditions: untreated sPD 162
Method: as §1
Cells are plated into 96 well plates and fixed using 4% paraformaldehyde for 30 minutes. After PBS washes cells are permeabilised using 0.1% Triton™ X-100 for 10 minutes and blocked using 5% goat serum for 1 hour. Cells are incubated with primary antibodies tyrosine hydroxylase (St John's Laboratory); DAT (Abcam); Tuj (Millipore); Tom20 (BD Biosciences); activated caspase 3 (Cell Signaling); alpha synuclein (Cell Signaling); phosphorylated alpha synuclein (Millipore) at 4° C. for 16 hours. Cells are washed using PBS-Tween® and incubated with Alexa Fluor™-conjugated secondary antibodies 488 and 568 (Invitrogen) and Hoescht (Sigma) 1 μM prior to imaging. Imaging was performed using the Opera Phenix™ high content imaging system (Perkin Elmer).

[5] = system: dopaminergic neurons derived from sPD patients (iNeurons); assay: Mitochondrial function and neuronal morphology measurements in iNeurons from sPD patients; conditions: iNeurons from sPD patients; for EC50: Homo sapiens, Neuron
Method: Fibroblasts were cultured in DMEM (Invitrogen) and routinely subcultured every 3-5 days using trypsin to dissociate them.
as §1
Cells are plated in 96 well plates; for live imaging cells are incubated for one hour at 37 degree with 80 nM tetramethlyrhodamine (TMRM), 1 μM LysoTracker® Green (Invitrogen) and Hoechst Stain solution (Sigma) at 1 μM before imaging using Opera Phenix™. Cellular ATP measurements are undertaken using ATPlite kit (Perkin Elmer) as per manufacturer's instructions. Mitochondrial reactive oxygen species generation was assessed using mitochondrial NpFR2 (probe; a kind gift from Dr Liz New, University of Sydney, Australia) at 20 μM and Hoechst stain solution at 1 μM for 30 mins at 37° C., then the dyes are removed and cells images using Opera Phenix™. Images generated from the live imaging experiments were analysed using Harmony® (Perkin Elmer software). We developed protocols in order to segment nucleus, cell boundary and processes, mitochondria, lysosomes, autophagosomes. We only analysed the z projection images collected from the z stacks.

`C[C@H](CCC(=O)O)[C@H]1CC[C@H]2[C@@H]3[C@@H](O)C[C@@H]4C[C@H](O)CC[C@]4(C)[C@H]3CC[C@]12C` [UDCA, ursodeoxycholic acid, reference compound] was tested, and the EC90 [1] was 100 nM, the “Dopamine level (increase in dopamine release)” value [2] was “No effect” and the “% increase over vehicle treated (mean increase in ATP levels)” value [3] was 12%. The “Activated caspase 3 levels” value [4] was 143 % of level in iNeurons from Controls, the EC50 ([5]; read-out: ATP EC50) was 5 nM and the EC50 ([5]; read-out: MMP EC50) was 7.3 nM. For the same compound, the “Neuronal morphology (elongation; % controls)” value ([5]; untreated sPD 48) was 64 % controls, the “ATP normalisation (% of controls)” value ([5]; untreated sPD 50) was 82 % of controls and the “MMP normalisation (% of controls)” value ([5]; untreated sPD 52) was 73 % of controls. The “ROS (Normalisation) (% controls)” value ([5]; untreated sPD 115) was 110 % controls.

From patent US20220073557A1, “FLUORINATED BILE ACIDS” (NZP UK LIMITED, priority 2018, published 2022)
